Results published in patent publication US10934310B2, “Inhibitors of Bruton's tyrosine kinase and method of their use” (JANSSEN PHARMACEUTICA NV, priority 2015, dated 2021).

target: unphosphorylated-BTK kinase domain (UP-BTK), GST-tagged human BTK (389-659aa) (Homo sapiens (Human), UniProt Q06187); test: BTK Kinase Lanthascreen Binding Assay; details: Lanthascreen binding, 60 minutes incubation; pIC50 = negative log of the IC50 in molar
Method: BTK Kinase Lanthascreen Binding Assay:
A BTK kinase lanthascreen binding assay monitors compound binding to unphosphorylated-BTK kinase domain (UP-BTK), by competing with a fluorescent labeled tracer. […] Data were analyzed using Xlfit™ version 5.3 from ID Business Solutions (Guildford), Microsoft Excel add-in. pIC50 refers to the negative log of the IC50 in molar.

unphosphorylated-BTK kinase domain (UP-BTK), GST-tagged human BTK (389-659aa), sequence (Q06187 389-659): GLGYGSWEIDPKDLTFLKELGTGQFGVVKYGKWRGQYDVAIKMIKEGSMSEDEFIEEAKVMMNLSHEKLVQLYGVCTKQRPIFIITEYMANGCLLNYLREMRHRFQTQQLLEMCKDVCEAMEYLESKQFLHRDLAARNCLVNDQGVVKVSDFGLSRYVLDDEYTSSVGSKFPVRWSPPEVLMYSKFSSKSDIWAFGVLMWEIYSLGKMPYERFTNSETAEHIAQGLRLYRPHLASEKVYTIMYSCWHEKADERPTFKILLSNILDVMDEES

| SMILES | BTK_I_binding pIC50 |
| --- | --- |
| CC(=O)N[C@@H]1CC[C@@H](NC(=O)c2sc3nccc4c3c2NC(=O)N4c2cnc(Oc3ccccc3)cc2C)C1 (single isomer, unassigned) [Example 392, N-((1R,3R)-3-Acetamidocyclopentyl)-5-(*S)-(4-methyl-6-phenoxypyridin-3-yl)-4-oxo-4,5-dihydro-3H-1-thia-3,5,8-triazaacenaphthylene-2-carboxamide] | 7.34 |
| C=CC(=O)N[C@H]1CCCC[C@H]1NC(=O)c1sc2nccc3c2c1NC(=O)N3c1ccc(Oc2ccccc2)cn1 [Example 291, N-((1R,2S)-2-Acrylamidocyclohexyl)-4-oxo-5-(5-phenoxypyridin-2-yl)-4,5-dihydro-3H-1-thia-3,5,8-triazaacenaphthylene-2-carboxamide] | 8.60 |
| C=CC(=O)N[C@H]1CCCC[C@H]1NC(=O)c1sc2nccc3c2c1NC(=O)N3c1cnc(Oc2ccccc2)nc1 [Example 302, N-((1R,2S)-2-Acrylamidocyclohexyl)-4-oxo-5-(2-phenoxypyrimidin-5-yl)-4,5-dihydro-3H-1-thia-3,5,8-triazaacenaphthylene-2-carboxamide] | 8.23 |
| C=CC(=O)N[C@H]1CCC[C@H]1NC(=O)c1sc2nccc3c2c1NC(=O)N3c1ccc(Oc2cccnc2C)cc1 [Example 372, N-((1R,2S)-2-Acrylamidocyclopentyl)-5-(4-((2-methylpyridin-3-yl)oxy)phenyl)-4-oxo-4,5-dihydro-3H-1-thia-3,5,8-triazaacenaphthylene-2-carboxamide] | 7.93 |
| CNCC(=O)N[C@@H]1CCCC[C@@H]1NC(=O)c1sc2nccc3c2c1NC(=O)N3c1ccc(Oc2ccccc2)cc1C (single isomer, unassigned) [Example 443, 5-(*S)-(2-Methyl-4-phenoxyphenyl)-N-((1S,2R)-2-(2-(methylamino)acetamido)cyclohexyl)-4-oxo-4,5-dihydro-3H-1-thia-3,5,8-triazaacenaphthylene-2-carboxamide] | 6.74 |
| CCC(=O)N[C@H]1CCC[C@H]1NC(=O)c1sc2nccc3c2c1NC(=O)N3c1ccc(Oc2ccccc2)nc1C (single isomer, unassigned) [Example 346, 5-(*S)-(2-Methyl-6-phenoxypyridin-3-yl)-4-oxo-N-((1R,2S)-2-propionamidocyclopentyl)-4,5-dihydro-3H-1-thia-3,5,8-triazaacenaphthylene-2-carboxamide] | 6.07 |
| C=CC(=O)N[C@@H]1CCCC[C@@H]1NC(=O)c1sc2nccc3c2c1NC(=O)N3c1ccc(Oc2ccccc2)cc1C (single isomer, unassigned) [Example 451] | 6.40 |
| Cc1cc(Oc2ccccc2)ccc1N1C(=O)Nc2c(C(=O)N3CC[C@H](N(C)C)C3)sc3nccc1c23 [Example 421, (S)-2-(3-(Dimethylamino)pyrrolidine-1-carbonyl)-5-(2-methyl-4-phenoxyphenyl)-3H-1-thia-3,5,8-triazaacenaphthylen-4(5H)-one] | 5.66 |
| C=CC(=O)N[C@@H]1CCCC[C@H]1NC(=O)c1sc2nccc3c2c1NC(=O)N3c1ccc(Oc2ccccc2)nc1C (single isomer, unassigned) [Example 322, N-((1R,2R)-2-Acrylamidocyclohexyl)-5-(*S)-(2-methyl-6-phenoxypyridin-3-yl)-4-oxo-4,5-dihydro-3H-1-thia-3,5,8-triazaacenaphthylene-2-carboxamide] | 6.81 |

Other lines, results leading:

| BTK_I_binding pIC50 | SMILES |
| --- | --- |
| 7.45 | CC(=O)N[C@H]1CC[C@H](NC(=O)c2sc3nccc4c3c2NC(=O)N4c2cnc(Oc3ccccc3)cc2C)CC1 [Example 432, N-((1r,4r)-4-Acetamidocyclohexyl)-5-(*S)-(4-methyl-6-phenoxypyridin-3-yl)-4-oxo-4,5-dihydro-3H-1-thia-3,5,8-triazaacenaphthylene-2-carboxamide] |
| 6.39 | CC(=O)N[C@H]1CCC[C@H]1NC(=O)c1sc2nccc3c2c1NC(=O)N3c1cnc(Oc2ccccc2)cc1C (single isomer, unassigned) [Example 378, N-((1R,2S)-2-Acetamidocyclopentyl)-5-(*S)-(4-methyl-6-phenoxypyridin-3-yl)-4-oxo-4,5-dihydro-3H-1-thia-3,5,8-triazaacenaphthylene-2-carboxamide] |
| 7.03 | C=CC(=O)N[C@H]1CCC[C@H]1NC(=O)c1sc2nccc3c2c1NC(=O)N3c1cnc(Oc2cccnc2C)cc1C [Example 489, N-((1R,2S)-2-Acrylamidocyclopentyl)-5-(4-methyl-6-((2-methylpyridin-3-yl)oxy)pyridin-3-yl)-4-oxo-4,5-dihydro-3H-1-thia-3,5,8-triazaacenaphthylene-2-carboxamide] |
| 6.66 | CC(=O)N[C@H]1CC[C@H](NC(=O)c2sc3nccc4c3c2NC(=O)N4c2cnc(Oc3ccccc3)cc2C)C1 (single isomer, unassigned) [Example 395, N-((1S,3S)-3-Acetamidocyclopentyl)-5-(*S)-(4-methyl-6-phenoxypyridin-3-yl)-4-oxo-4,5-dihydro-3H-1-thia-3,5,8-triazaacenaphthylene-2-carboxamide] |
| 6.82 | Cc1cc(OC2CCCC2)ncc1N1C(=O)Nc2c(C(=O)N[C@@H]3CCC[C@@H]3N)sc3nccc1c23 (single isomer, unassigned) [Example 374, N-((1R,2S)-2-Aminocyclopentyl)-5-(*S)-(6-(cyclopentyloxy)-4-methylpyridin-3-yl)-4-oxo-4,5-dihydro-3H-1-thia-3,5,8-triazaacenaphthylene-2-carboxamide] |
| 7.86 | CC(=O)N[C@@H]1CC[C@H](NC(=O)c2sc3nccc4c3c2NC(=O)N4c2cnc(Oc3ccccc3)cc2C)C1 (single isomer, unassigned) [Example 391, N-((1S,3R)-3-Acetamidocyclopentyl)-5-(*S)-(4-methyl-6-phenoxypyridin-3-yl)-4-oxo-4,5-dihydro-3H-1-thia-3,5,8-triazaacenaphthylene-2-carboxamide] |

same assay, conditions: compound, 50 nM Tracer 236, 2 nM anti-GST antibody, 60 minutes; pIC50 = negative log of the IC50 in molar

| SMILES | BTK_I_binding pIC50 |
| --- | --- |
| Cc1cc(Oc2ccccc2)ccc1N1C(=O)Nc2c(C(=O)N[C@H]3CCC[C@H](NC(=O)CN)C3)sc3nccc1c23 (single isomer, unassigned) [Example 251, N-((1R,3S)-3-(2-Aminoacetamido)cyclohexyl)-5-(*S)-(2-methyl-4-phenoxyphenyl)-4-oxo-4,5-dihydro-3H-1-thia-3,5,8-triazaacenaphthylene-2-carboxamide] | 6.71 |
| Cc1cc(Oc2ccccc2)ccc1N1C(=O)Nc2c(C(=O)N[C@H]3CC[C@@H](O)CC3)sc3nccc1c23 (single isomer, unassigned) [Example 84, N-((1S,4S)-4-Hydroxycyclohexyl)-5-(*R)-(2-methyl-4-phenoxyphenyl)-4-oxo-4,5-dihydro-3H-1-thia-3,5,8-triazaacenaphthylene-2-carboxamide] | 6.21 |
| Cc1cc(Oc2ccccc2)ccc1N1C(=O)Nc2c(C(=O)N[C@H]3CCC[C@@H](N)C3)sc3nccc1c23 (single isomer, unassigned) [Example 230, N-((1S,3R)-3-Aminocyclohexyl)-5-(*S)-(2-methyl-4-phenoxyphenyl)-4-oxo-4,5-dihydro-3H-1-thia-3,5,8-triazaacenaphthylene-2-carboxamide] | 7.24 |
| Cc1cc(Oc2ccccc2)ccc1N1C(=O)Nc2c(C(=O)N[C@@H]3CCC[C@H](N(C)C)C3)sc3nccc1c23 [Example 24, N-((1R,3S)-3-(Dimethylamino)cyclohexyl)-5-(2-methyl-4-phenoxyphenyl)-4-oxo-4,5-dihydro-3H-1-thia-3,5,8-triazaacenaphthylene-2-carboxamide] | 6.59 |
| CC(=O)N[C@@H]1CCC[C@@H]1NC(=O)c1sc2nccc3c2c1NC(=O)N3c1ccc(Oc2ccccc2)cc1C [Example 57, N-((1S,2R)-2-Acetamidocyclopentyl)-5-(2-methyl-4-phenoxyphenyl)-4-oxo-4,5-dihydro-3H-1-thia-3,5,8-triazaacenaphthylene-2-carboxamide] | 5.65 |
| C=CC(=O)N[C@H]1CCCC[C@H]1NC(=O)c1sc2nccc3c2c1NC(=O)N3c1cnc(OC2CCC2)cc1C (single isomer, unassigned) [Example 266, N-((1R,2S)-2-Acrylamidocyclohexyl)-5-(*R)-(6-cyclobutoxy-4-methylpyridin-3-yl)-4-oxo-4,5-dihydro-3H-1-thia-3,5,8-triazaacenaphthylene-2-carboxamide] | 6.21 |
| CC(=O)N[C@H]1CCC[C@@H]1NC(=O)c1sc2nccc3c2c1NC(=O)N3c1ccc(Oc2ccccc2)cc1C [Example 40, N-((1S,2S)-2-Acetamidocyclopentyl)-5-(2-methyl-4-phenoxyphenyl)-4-oxo-4,5-dihydro-3H-1-thia-3,5,8-triazaacenaphthylene-2-carboxamide] | 6.40 |

Results, then the compound that gave them:

| BTK_I_binding pIC50 | SMILES |
| --- | --- |
| 6.00 | N[C@@H]1CCC[C@H]1NC(=O)c1sc2nccc3c2c1NC(=O)N3c1ccc(Oc2ccccc2)nc1 [Example 269, N-((1R,2R)-2-Aminocyclopentyl)-4-oxo-5-(6-phenoxypyridin-3-yl)-4,5-dihydro-3H-1-thia-3,5,8-triazaacenaphthylene-2-carboxamide] |
| 6.23 | Cc1cc(Oc2ccccc2)ccc1N1C(=O)Nc2c(C(=O)N[C@@H]3CCCC[C@H]3N(C)C)sc3nccc1c23 [Example 43, N-((1R,2R)-2-(Dimethylamino)cyclohexyl)-5-(2-methyl-4-phenoxyphenyl)-4-oxo-4,5-dihydro-3H-1-thia-3,5,8-triazaacenaphthylene-2-carboxamide] |
| 7.31 | Cc1cc(Oc2ccccc2)ccc1N1C(=O)Nc2c(C(=O)N[C@@H]3CCCC[C@@H]3N(C)C)sc3nccc1c23 (relative stereo) [Example 7, N-((1R,2S)-2-(Dimethylamino)cyclohexyl)-5-(*S)-(2-methyl-4-phenoxyphenyl)-4-oxo-4,5-dihydro-3H-1-thia-3,5,8-triazaacenaphthylene-2-carboxamide] |
